In patent EP0615449B1, “USE OF FLAVINE DERIVATIVES IN THE PRODUCTION OF MEDICO-SURGICAL SANITARY ARTICLES AND SANITARY ARTICLES SO OBTAINED” (BERQUE, Jean, priority 1992, dated 1994):

Key:
VIH = details: cited from earlier work
[1] = test system: cellules CEM-SS infectées par HIV1; test: In vitro anti-viral test on HIV1-infected CEM-SS cells (Institut de Virologie, Strasbourg), read out as reverse transcriptase inhibition; type: cell-based; details: dilution au 1/5000è
Excerpt: Début 1992, un test "in vitro" a été effectué par l'Institut de Virologie de la Faculté de Strasbourg. Le test est positif à la dilution au 1/5000è sur les cellules CEM-SS infectées par HIV1; l'effet anti-viral est objectivé par une inhibition de la transcriptase reverse supérieure à 50%.

HIV [2] = test: Clinical observation, intravenous vitamin B2 in an AIDS patient (stage IV); type: in vivo; details: malade sidéen stade IV; voie intra-veineuse, injection unique de 20 mg par jour
Excerpt: (§1) L'idée de départ découlait donc de constatations expérimentales concernant la photosynthèse protéique à l'échelle animale et la photosynthèse virale. On a donc utilisé initialement la vitamine B2 en fonction de ses propriétés d'absorption de la lumière avec l'idée d'interposer un écran photoprotecteur entre le rayonnement solaire UV parvenant à l'organisme et les virus HIV et HSV dont les patients étaient porteurs. Ce concept a été formulé dans le but d'"éteindre" ces virus dont il semblait, en fonction des hypothèses émises, que le rayonnement ultra-violet activait tant leur synthèse que leur replication. Les effets cliniques spectaculaires et très rapidement obtenus ont confirmé l'hypothèse de départ. C'est par la suite que le Demandeur s'est rendu compte qu'outre les propriétés photoprotectrices de la vitamine B2, la formule biochimique diphosphonucléotidique de son métabolite actif, le FAD, jouait également un rôle important.

[3] = lait exposé à la lumière, même dans un emballage transparent; cited from earlier work
Herpès génital = test: Clinical observation, intravenous vitamin B2 in a patient with recurrent genital herpes; type: in vivo; details: récurrence importante d'un Herpès génital; voie intra-veineuse, injection unique de 20 mg par jour
Excerpt: as §1

rougeole = details: traitement par la vitamine A, AFRIQUE DU SUD; cited from earlier work
HIV [4] = test: In vitro antiviral tests of FAD compared with AZT and DDI; type: cell-based
[5] = vulcanisation à chaud du latex; cited from earlier work
[6] = Cytotoxicity observed in the in vitro tests of FAD; type: cell-based

N[C@@H](CCC(=O)N[C@@H](CS)C(=O)NCC(=O)O)C(=O)O [glutathion]
activité anti-VIH in vitro (VIH): exerce une activité anti-VIH in vitro

Cc1cc2nc3c(=O)[nH]c(=O)nc-3n(C[C@H](O)[C@H](O)[C@H](O)CO)c2cc1C [vitamine B2, Riboflavine]
inhibition de la transcriptase reverse [1]: > 50%
test "in vitro" (effet anti-viral) [1]: positif
effets cliniques (HIV [2]): résultats spectaculaires
Riboflavine détruite [3]: 85%
effets cliniques (Herpès génital): résultats spectaculaires

CC1=C(/C=C/C(C)=C/C=C/C(C)=C/CO)C(C)(C)CCC1 [vitamine A]
amélioration de la rougeole (rougeole): amélioration notable

acides biliaires
activité anti-VIH in vitro (VIH): actifs in vitro sur le VIH

C=CC1=C(C)c2cc3[n-]c(cc4[n-]c(cc5nc(cc1n2)C(C)=C5C=C)c(C)c4CCC(=O)O)c(CCC(=O)O)c3C.[Fe+2] [Hème]
activité anti-VIH in vitro (VIH): exerce une activité anti-VIH in vitro

Cc1cc2nc3c(=O)[nH]c(=O)nc-3n(C[C@H](O)[C@H](O)[C@H](O)COP(=O)(O)OP(=O)(O)OC[C@H]3O[C@@H](n4cnc5c(N)ncnc54)[C@H](O)[C@@H]3O)c2cc1C [FAD, flavine -adenine dinucleotide]
activité in vitro (HIV [4]): aussi actif in vitro que l'AZT et plus actif que le DDI
stabilité thermique [5]: thermostables
cyto-toxicité [6]: sans aucune cyto-toxicité
